# Source: article PMC3832036, “The crystal structures of the tri-functional Chloroflexus aurantiacus and bi-functional Rhodobacter sphaeroides malyl-CoA lyases and comparison with CitE-like superfamily enzymes and malate synthases” (BMC Structural Biology, 2013)
# B1: malyl-CoA lyase of Rhodobacter sphaeroides (enzyme, Rhodobacter sphaeroides 2.4.1)
# chain: MSFRLQPAPPARPNRCQLFGPGSRPALFEKMAASAADVINLDLEDSVAPDDKAQARANIIEAINGLDWGRKYLSVRINGLDTPFWYRDVVDLLEQAGDRLDQIMIPKVGCAADVYAVDALVTAIERAKGRTKPLSFEVIIESAAGIAHVEEIAASSPRLQAMSLGAADFAASMGMQTTGIGGTQENYYMLHDGQKHWSDPWHWAQAAIVAACRTHGILPVDGPFGDFSDDEGFRAQARRSATLGMVGKWAIHPKQVALANEVFTPSETAVTEAREILAAMDAAKARGEGATVYKGRLVDIASIKQAEVIVRQAEMISA
# notes: Malyl-CoA lyase of Rhodobacter sphaeroides 2.4.1, GenBank ACJ71673; model 4L9Z holds Ser2 or Phe3 through Met315 with only the C-terminal three residues missing (lid domain residues 264-318); 36.8 kDa per monomer; Hexamer (dimer of trimers); The His10 tag had no electron density in the crystals; also called MCLR; MCL; source: E. coli BL21(DE3), purified (Ni-Sepharose, gel filtration); not shown: …
# B2: malyl-CoA lyase of Chloroflexus aurantiacus (enzyme, Chloroflexus aurantiacus OK-70-fl, UniProt S5N020 1-348, looked up)
# chain: MRKLAHNFYKPLAIGAPEPIRELPVRPERVVHFFPPHVEKIRARIPEVAKQVDVLCGNLEDAIPMDAKEAARNGFIEVVKATDFGDTALWVRVNALNSPWVLDDIAEIVAAVGNKLDVIMIPKVEGPWDIHFVDQYLALLEARHQIKKPILIHALLETAQGMVNLEEIAGASPRMHGFSLGPADLAASRGMKTTRVGGGHPFYGVLADPQEGQAERPFYQQDLWHYTIARMVDVAVAHGLRAFYGPFGDIKDEAACEAQFRNAFLLGCTGAWSLAPNQIPIAKRVFSPDVNEVLFAKRILEAMPDGSGVAMIDGKMQDDATWKQAKVIVDLARMIAKKDPDLAQAYGL
# notes: Malyl-CoA lyase of Chloroflexus aurantiacus OK-70-fl, GenBank AGR55786; gene amplified from chromosomal DNA with primers upstream (NdeI at the start codon) and downstream of the gene, cloned into pT7-7; 348 residues (models run from Arg2 to Leu348, the native C-terminus); calculated 38.4 kDa per monomer; Hexamer (dimer of trimers); No tag is named for this construct; also called MCLC; MCL; …
# Columns and labels:
# [1] = target: T1, MCLR (Cereibacter sphaeroides, UniProt Q3J5L6); conditions: Mg2+; pH 8.5; two closed active sites; not intentionally added, modelled from density
# T1 construct: gene mcl1
# [2] = target: T1, MCLR; conditions: glyoxylate and Mg2+ present; pH 8.5; one of the closed active sites
# [3] = target: T1, MCLR; conditions: 0.5 mM acetyl-CoA, 100 mM pyruvate, 5 mM MgCl2, MOPS/KOH pH 7.5
# [4] = target: the molecule itself; test: SEC; Superdex 200 10/30 GL, 20 mM Tris/HCl pH 7.5, 2 mM MgCl2, 100 mM NaCl, 4°C; molecular weight against protein standards
molecule,measurement,setting,value
"O=CC(=O)O [GLX, glyoxylate]","X-ray crystal structure, glyoxylate carried over from E. coli, 2.1 A",[1],active sites contained electron density that allowed modeling of glyoxylate molecules together with magnesium ions
"CCC(=O)SCCNC(=O)CCNC(=O)[C@H](O)C(C)(C)COP(=O)(O)OP(=O)(O)OC[C@H]1O[C@@H](n2cnc3c(N)ncnc32)[C@H](O)[C@@H]1OP(=O)(O)O [PCO, propionyl-CoA]","X-ray crystal structure, crystal soaking, 2.1 A",[2],one of these closed active sites was also occupied by propionyl-CoA
"CC(=O)C(=O)O [PYR, pyruvate]",reversed phase HPLC of citramalyl-CoA formation,[3],formation of citramalyl-CoA was confirmed by reversed phase HPLC analysis
B1,stoichiometry N,[4],6
B2,stoichiometry N,[4],6
